Experimental findings from patent US10344060B2 (priority 2013, dated 2019) are described below.

One experiment deals with hNav1.7 (Homo sapiens, UniProt Q15858). Nature of the experiment: cell-based. Conditions: ratio of IonWorks Quattro IC50 values, Nav1.4 over Nav1.7.
A further experiment deals with hNav1.4 (Homo sapiens, UniProt P35499). Nature of the experiment: cell-based. Conditions: ratio of IonWorks Quattro IC50 values; Table 9. Format: cell-based. Background: In patch-clamp work, channel activity is measured electrically.
Chain of hNav1.4 (P35499 whole entry): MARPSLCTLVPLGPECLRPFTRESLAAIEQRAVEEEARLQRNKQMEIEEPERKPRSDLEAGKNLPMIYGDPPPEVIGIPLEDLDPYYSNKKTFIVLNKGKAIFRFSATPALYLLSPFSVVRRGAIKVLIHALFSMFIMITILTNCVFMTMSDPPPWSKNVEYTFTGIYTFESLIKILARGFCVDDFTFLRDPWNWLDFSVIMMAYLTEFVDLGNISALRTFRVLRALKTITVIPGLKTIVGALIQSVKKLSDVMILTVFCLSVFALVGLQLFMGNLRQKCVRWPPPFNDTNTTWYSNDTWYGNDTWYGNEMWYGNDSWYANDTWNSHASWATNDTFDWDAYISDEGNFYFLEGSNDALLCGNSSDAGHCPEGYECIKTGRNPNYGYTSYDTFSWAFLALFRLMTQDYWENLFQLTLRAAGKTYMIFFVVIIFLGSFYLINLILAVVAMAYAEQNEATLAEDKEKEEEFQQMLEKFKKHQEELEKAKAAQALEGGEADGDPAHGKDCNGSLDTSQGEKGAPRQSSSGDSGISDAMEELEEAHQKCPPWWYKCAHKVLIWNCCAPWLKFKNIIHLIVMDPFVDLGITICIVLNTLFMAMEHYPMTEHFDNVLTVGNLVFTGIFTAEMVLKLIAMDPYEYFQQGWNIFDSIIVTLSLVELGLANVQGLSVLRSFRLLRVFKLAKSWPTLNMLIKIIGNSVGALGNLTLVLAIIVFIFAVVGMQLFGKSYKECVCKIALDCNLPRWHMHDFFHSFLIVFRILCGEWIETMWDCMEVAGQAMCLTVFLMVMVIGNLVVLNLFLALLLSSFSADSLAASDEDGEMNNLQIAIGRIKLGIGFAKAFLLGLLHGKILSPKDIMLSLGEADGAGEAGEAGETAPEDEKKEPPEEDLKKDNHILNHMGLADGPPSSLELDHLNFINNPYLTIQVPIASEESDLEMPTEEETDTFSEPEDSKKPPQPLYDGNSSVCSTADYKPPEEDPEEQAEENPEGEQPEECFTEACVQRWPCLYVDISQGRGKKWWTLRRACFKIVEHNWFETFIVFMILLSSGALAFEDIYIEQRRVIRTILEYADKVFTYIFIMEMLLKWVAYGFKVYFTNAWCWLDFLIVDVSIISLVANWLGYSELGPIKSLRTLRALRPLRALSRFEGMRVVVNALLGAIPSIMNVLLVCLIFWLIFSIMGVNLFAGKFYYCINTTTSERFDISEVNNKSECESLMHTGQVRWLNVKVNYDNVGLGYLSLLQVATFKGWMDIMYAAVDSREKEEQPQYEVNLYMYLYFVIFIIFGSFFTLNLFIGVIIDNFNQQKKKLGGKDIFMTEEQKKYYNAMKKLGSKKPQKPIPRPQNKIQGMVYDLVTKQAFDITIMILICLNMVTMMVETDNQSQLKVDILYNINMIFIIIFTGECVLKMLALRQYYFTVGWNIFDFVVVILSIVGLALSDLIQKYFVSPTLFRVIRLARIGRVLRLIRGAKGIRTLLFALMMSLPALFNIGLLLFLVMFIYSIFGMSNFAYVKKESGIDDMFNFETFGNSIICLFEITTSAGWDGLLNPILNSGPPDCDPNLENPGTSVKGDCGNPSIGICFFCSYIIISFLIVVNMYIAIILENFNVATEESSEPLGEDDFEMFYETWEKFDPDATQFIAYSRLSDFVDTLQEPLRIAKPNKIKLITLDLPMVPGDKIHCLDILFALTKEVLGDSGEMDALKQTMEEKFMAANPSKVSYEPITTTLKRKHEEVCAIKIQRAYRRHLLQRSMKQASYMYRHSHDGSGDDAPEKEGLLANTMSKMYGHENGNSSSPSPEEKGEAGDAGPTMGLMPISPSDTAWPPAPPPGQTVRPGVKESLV

Chain of hNav1.7 (Q15858 whole entry): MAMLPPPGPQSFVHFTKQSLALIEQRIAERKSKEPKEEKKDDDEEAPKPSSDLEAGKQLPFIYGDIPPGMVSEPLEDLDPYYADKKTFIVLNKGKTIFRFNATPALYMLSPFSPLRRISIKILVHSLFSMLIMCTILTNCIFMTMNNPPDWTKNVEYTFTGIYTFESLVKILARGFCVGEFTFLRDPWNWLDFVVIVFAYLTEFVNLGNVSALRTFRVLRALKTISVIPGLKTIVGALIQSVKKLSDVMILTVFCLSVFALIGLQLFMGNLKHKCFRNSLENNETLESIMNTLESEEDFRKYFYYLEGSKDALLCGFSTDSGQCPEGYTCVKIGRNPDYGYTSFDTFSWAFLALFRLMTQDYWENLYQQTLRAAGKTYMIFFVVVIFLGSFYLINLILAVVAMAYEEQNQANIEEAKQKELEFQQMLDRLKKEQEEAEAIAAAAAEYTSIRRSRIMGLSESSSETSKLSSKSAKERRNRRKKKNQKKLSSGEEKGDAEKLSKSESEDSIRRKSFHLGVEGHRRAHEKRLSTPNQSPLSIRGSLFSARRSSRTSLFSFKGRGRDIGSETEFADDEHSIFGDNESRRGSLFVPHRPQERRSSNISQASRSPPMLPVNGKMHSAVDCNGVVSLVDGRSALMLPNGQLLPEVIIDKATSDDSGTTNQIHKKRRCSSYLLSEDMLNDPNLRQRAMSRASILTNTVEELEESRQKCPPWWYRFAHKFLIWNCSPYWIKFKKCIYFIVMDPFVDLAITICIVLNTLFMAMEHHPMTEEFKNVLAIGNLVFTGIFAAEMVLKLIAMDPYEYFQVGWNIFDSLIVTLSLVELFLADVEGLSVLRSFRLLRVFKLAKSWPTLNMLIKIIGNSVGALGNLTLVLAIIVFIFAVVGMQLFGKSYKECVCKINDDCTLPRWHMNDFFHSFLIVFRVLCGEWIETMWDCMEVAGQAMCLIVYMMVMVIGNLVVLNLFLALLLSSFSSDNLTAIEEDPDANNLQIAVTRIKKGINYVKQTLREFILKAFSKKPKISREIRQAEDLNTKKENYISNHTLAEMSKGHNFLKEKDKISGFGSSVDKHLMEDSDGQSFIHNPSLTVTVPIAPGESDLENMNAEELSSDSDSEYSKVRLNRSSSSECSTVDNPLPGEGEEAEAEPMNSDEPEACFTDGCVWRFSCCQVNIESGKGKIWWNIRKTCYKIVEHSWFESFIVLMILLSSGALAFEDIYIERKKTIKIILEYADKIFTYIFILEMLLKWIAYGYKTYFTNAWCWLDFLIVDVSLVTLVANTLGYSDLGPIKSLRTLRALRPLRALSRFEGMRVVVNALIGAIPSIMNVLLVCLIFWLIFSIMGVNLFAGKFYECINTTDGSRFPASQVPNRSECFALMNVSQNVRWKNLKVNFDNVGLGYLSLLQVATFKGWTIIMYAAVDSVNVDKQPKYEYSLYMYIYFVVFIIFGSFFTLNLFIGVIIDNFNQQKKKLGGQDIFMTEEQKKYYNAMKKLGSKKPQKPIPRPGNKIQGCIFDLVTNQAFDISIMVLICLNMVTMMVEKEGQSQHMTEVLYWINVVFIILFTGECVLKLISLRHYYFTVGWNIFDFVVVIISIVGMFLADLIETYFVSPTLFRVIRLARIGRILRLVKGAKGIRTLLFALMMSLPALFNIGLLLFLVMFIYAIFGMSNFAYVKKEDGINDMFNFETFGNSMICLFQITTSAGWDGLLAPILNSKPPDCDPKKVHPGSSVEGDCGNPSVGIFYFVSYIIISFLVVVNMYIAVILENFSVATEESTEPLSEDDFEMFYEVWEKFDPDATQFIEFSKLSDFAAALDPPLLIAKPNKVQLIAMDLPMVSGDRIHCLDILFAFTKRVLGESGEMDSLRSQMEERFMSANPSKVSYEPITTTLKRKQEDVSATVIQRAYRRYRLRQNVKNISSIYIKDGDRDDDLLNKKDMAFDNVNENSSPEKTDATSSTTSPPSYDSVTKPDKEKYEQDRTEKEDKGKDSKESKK

In the case of `CCC[C@@H]1NC(=O)[C@H](Cc2c[nH]c3ccccc23)NC(=O)[C@H](CCCCN)NC(=O)[C@H](CCC(N)=O)NC(=O)[C@@H](NC(=O)[C@@H](N)Cc2ccc(O)cc2)CSSC[C@@H]2NC(=O)[C@@H]3CSSC[C@@H](C(=O)N[C@@H](CCCNC(=N)N)C(=O)N[C@@H](CCCCN)C(=O)N[C@H](C(=O)N[C@H](C(N)=O)[C@@H](C)CC)[C@@H](C)CC)NC(=O)[C@H](Cc4c[nH]c5ccccc45)NC(=O)[C@H](CC(C)C)NC(=O)[C@H](CCCCN)NC(=O)[C@H](CSSC[C@H](NC(=O)[C@H]([C@@H](C)O)NC(=O)[C@H](Cc4c[nH]c5ccccc45)NC1=O)C(=O)N[C@@H](CC(=O)O)C(=O)N[C@@H](CO)C(=O)N[C@@H](CCCCN)C(=O)N[C@@H](CCCNC(=N)N)C(=O)N[C@@H](C)C(=O)N3)NC(=O)[C@H](CCC(=O)O)NC(=O)[C@H](CC(C)C)NC(=O)CNC(=O)[C@H](CCC(=O)O)NC2=O` [compound 111], at hNav1.7, the Nav1.4/Nav1.7 is recorded as 7.

Consider `CC[C@H](C)[C@H](NC(=O)[C@H](CCCCN)NC(=O)[C@H](CCCNC(=N)N)NC(=O)[C@@H]1CSSC[C@@H]2NC(=O)[C@H](C)NC(=O)[C@H](CCCNC(=N)N)NC(=O)[C@H](CCCCN)NC(=O)[C@H](CO)NC(=O)[C@H](CC(=O)O)NC(=O)[C@@H]3CSSC[C@H](NC(=O)[C@H](CCC(=O)O)NC(=O)[C@H](CC(C)C)NC(=O)CNC(=O)[C@H](CCC(=O)O)NC(=O)[C@H](CSSC[C@H](NC(=O)[C@@H](N)Cc4ccc(O)cc4)C(=O)N[C@@H](CCC(N)=O)C(=O)N[C@@H](CCCCN)C(=O)N[C@@H](Cc4c[nH]c5ccccc45)C(=O)N[C@@H](CCSC)C(=O)N[C@@H](Cc4c[nH]c5ccccc45)C(=O)N[C@@H]([C@@H](C)O)C(=O)N3)NC2=O)C(=O)N[C@@H](CCCCN)C(=O)N[C@@H](CC(C)C)C(=O)N[C@@H](Cc2c[nH]c3ccccc23)C(=O)N1)C(=O)N[C@H](C(=O)N[C@@H](Cc1c[nH]c2ccccc12)C(N)=O)[C@@H](C)CC` [compound 113], for which the Nav1.4/Nav1.7 on hNav1.7 is listed as 30.

With `CC[C@H](C)[C@H](NC(=O)[C@@H](NC(=O)[C@H](CCCCN)NC(=O)[C@H](CCCNC(=N)N)NC(=O)[C@@H]1CSSC[C@@H]2NC(=O)[C@H](C)NC(=O)[C@H](CCCNC(=N)N)NC(=O)[C@H](CCCCN)NC(=O)[C@H](CO)NC(=O)[C@H](CC(=O)O)NC(=O)[C@@H]3CSSC[C@H](NC(=O)[C@H](Cc4ccc(C(=O)O)cc4)NC(=O)[C@H](CC(C)C)NC(=O)CNC(=O)[C@H](CCC(=O)O)NC(=O)[C@H](CSSC[C@H](NC(=O)[C@@H](N)Cc4ccc(O)cc4)C(=O)N[C@@H](CCC(N)=O)C(=O)N[C@@H](CCCCN)C(=O)N[C@@H](Cc4c[nH]c5ccccc45)C(=O)N[C@@H](CCSC)C(=O)N[C@@H](Cc4c[nH]c5ccccc45)C(=O)N[C@@H]([C@@H](C)O)C(=O)N3)NC2=O)C(=O)N[C@@H](CCCCN)C(=O)N[C@@H](CC(C)C)C(=O)N[C@@H](Cc2c[nH]c3ccccc23)C(=O)N1)[C@@H](C)CC)C(N)=O` [compound 114], the Nav1.4/Nav1.7 at hNav1.7 is 24.

`CC[C@H](C)[C@H](NC(=O)[C@@H](NC(=O)[C@H](CCCCN)NC(=O)[C@H](CCCNC(=N)N)NC(=O)[C@@H]1CSSC[C@@H]2NC(=O)[C@H](C)NC(=O)[C@H](CCCNC(=N)N)NC(=O)[C@H](CCCCN)NC(=O)[C@H](CO)NC(=O)[C@H](CC(=O)O)NC(=O)[C@@H]3CSSC[C@H](NC(=O)[C@H]([C@@H](C)CC)NC(=O)[C@H](CC(C)C)NC(=O)CNC(=O)[C@H](CCC(=O)O)NC(=O)[C@H](CSSC[C@H](NC(=O)[C@@H](N)Cc4ccc(O)cc4)C(=O)N[C@@H](CCC(N)=O)C(=O)N[C@@H](CCCCN)C(=O)N[C@@H](Cc4c[nH]c5ccccc45)C(=O)N[C@@H](CCSC)C(=O)N[C@@H](Cc4c[nH]c5ccccc45)C(=O)N[C@@H]([C@@H](C)O)C(=O)N3)NC2=O)C(=O)N[C@@H](CCCCN)C(=O)N[C@@H](CC(C)C)C(=O)N[C@@H](Cc2c[nH]c3ccccc23)C(=O)N1)[C@@H](C)CC)C(N)=O` [compound 118]: on hNav1.7, the Nav1.4/Nav1.7 was 15.

With `CC[C@H](C)[C@H](NC(=O)[C@@H](NC(=O)[C@H](CCCCN)NC(=O)[C@H](CCCNC(=N)N)NC(=O)[C@@H]1CSSC[C@@H]2NC(=O)[C@H](C)NC(=O)[C@H](CCCNC(=N)N)NC(=O)[C@H](CCCCN)NC(=O)[C@H](CO)NC(=O)[C@H](CC(=O)O)NC(=O)[C@@H]3CSSC[C@H](NC(=O)[C@H](CC(C)C)NC(=O)[C@H](CC(C)C)NC(=O)CNC(=O)[C@H](CCC(=O)O)NC(=O)[C@H](CSSC[C@H](NC(=O)[C@@H](N)Cc4ccc(O)cc4)C(=O)N[C@@H](CCC(N)=O)C(=O)N[C@@H](CCCCN)C(=O)N[C@@H](Cc4c[nH]c5ccccc45)C(=O)N[C@@H](CCSC)C(=O)N[C@@H](Cc4c[nH]c5ccccc45)C(=O)N[C@@H]([C@@H](C)O)C(=O)N3)NC2=O)C(=O)N[C@@H](CCCCN)C(=O)N[C@@H](CC(C)C)C(=O)N[C@@H](Cc2c[nH]c3ccccc23)C(=O)N1)[C@@H](C)CC)C(N)=O` [compound 119], the Nav1.4/Nav1.7 at hNav1.7 came out at 14.

As to `CC[C@H](C)[C@H](NC(=O)[C@@H](NC(=O)[C@H](CCCCN)NC(=O)[C@H](CCCNC(=N)N)NC(=O)[C@@H]1CSSC[C@@H]2NC(=O)[C@H](C)NC(=O)[C@H](CCCNC(=N)N)NC(=O)[C@H](CCCCN)NC(=O)[C@H](CO)NC(=O)[C@H](CC(=O)O)NC(=O)[C@@H]3CSSC[C@H](NC(=O)[C@H](C(C)C)NC(=O)[C@H](CC(C)C)NC(=O)CNC(=O)[C@H](CCC(=O)O)NC(=O)[C@H](CSSC[C@H](NC(=O)[C@@H](N)Cc4ccc(O)cc4)C(=O)N[C@@H](CCC(N)=O)C(=O)N[C@@H](CCCCN)C(=O)N[C@@H](Cc4c[nH]c5ccccc45)C(=O)N[C@@H](CCSC)C(=O)N[C@@H](Cc4c[nH]c5ccccc45)C(=O)N[C@@H]([C@@H](C)O)C(=O)N3)NC2=O)C(=O)N[C@@H](CCCCN)C(=O)N[C@@H](CC(C)C)C(=O)N[C@@H](Cc2c[nH]c3ccccc23)C(=O)N1)[C@@H](C)CC)C(N)=O` [compound 120], at hNav1.7, the Nav1.4/Nav1.7 came to 31.

As to `CC[C@H](C)[C@H](NC(=O)[C@@H](NC(=O)[C@H](CCCCN)NC(=O)[C@H](CCCNC(=N)N)NC(=O)[C@@H]1CSSC[C@@H]2NC(=O)[C@H](C)NC(=O)[C@H](CCCNC(=N)N)NC(=O)[C@H](CCCCN)NC(=O)[C@H](CO)NC(=O)[C@H](CC(=O)O)NC(=O)[C@@H]3CSSC[C@H](NC(=O)[C@H](CCC(=O)O)NC(=O)[C@H](CC(C)C)NC(=O)CNC(=O)[C@H](CCC(=O)O)NC(=O)[C@H](CSSC[C@H](NC(=O)[C@@H](N)Cc4cn(CCCOCCOCCOCCOCCOCCOCCOCCOCCOCCOCCN)nn4)C(=O)N[C@@H](CCC(N)=O)C(=O)N[C@@H](CCCCN)C(=O)N[C@@H](Cc4c[nH]c5ccccc45)C(=O)N[C@@H](CCSC)C(=O)N[C@@H](Cc4c[nH]c5ccccc45)C(=O)N[C@@H]([C@@H](C)O)C(=O)N3)NC2=O)C(=O)N[C@@H](CCCCN)C(=O)N[C@@H](CC(C)C)C(=O)N[C@@H](Cc2c[nH]c3ccccc23)C(=O)N1)[C@@H](C)CC)C(N)=O` [compound 165], the Nav1.4/Nav1.7 at hNav1.4 is listed as 28.

For `CC[C@H](C)[C@H](NC(=O)[C@@H](NC(=O)[C@H](CCCCN)NC(=O)[C@H](CCCNC(=N)N)NC(=O)[C@@H]1CSSC[C@@H]2NC(=O)[C@H](C)NC(=O)[C@H](CCCNC(=N)N)NC(=O)[C@H](CCCCN)NC(=O)[C@H](CO)NC(=O)[C@H](CC(=O)O)NC(=O)[C@@H]3CSSC[C@H](NC(=O)[C@H](CCC(=O)O)NC(=O)[C@H](CC(C)C)NC(=O)CNC(=O)[C@H](Cc4cn(CCCOCCOCCOCCOCCOCCOCCOCCOCCOCCOCCN)nn4)NC(=O)[C@H](CSSC[C@H](NC(=O)[C@@H](N)Cc4ccc(O)cc4)C(=O)N[C@@H](CCC(N)=O)C(=O)N[C@@H](CCCCN)C(=O)N[C@@H](Cc4c[nH]c5ccccc45)C(=O)N[C@@H](CCSC)C(=O)N[C@@H](Cc4c[nH]c5ccccc45)C(=O)N[C@@H]([C@@H](C)O)C(=O)N3)NC2=O)C(=O)N[C@@H](CCCCN)C(=O)N[C@@H](CC(C)C)C(=O)N[C@@H](Cc2c[nH]c3ccccc23)C(=O)N1)[C@@H](C)CC)C(N)=O` [compound 178], on hNav1.4, the Nav1.4/Nav1.7 is on record as 28.

In the case of `CC[C@H](C)[C@H](NC(=O)[C@@H](NC(=O)[C@H](CCCCN)NC(=O)[C@H](CCCNC(=N)N)NC(=O)[C@@H]1CSSC[C@@H]2NC(=O)[C@H](C)NC(=O)[C@H](CCCNC(=N)N)NC(=O)[C@H](CCCCN)NC(=O)[C@H](CO)NC(=O)[C@H](CC(=O)O)NC(=O)[C@@H]3CSSC[C@H](NC(=O)[C@H](CCC(=O)O)NC(=O)[C@H](CC(C)C)NC(=O)CNC(=O)[C@H](CCC(=O)O)NC(=O)[C@H](CSSC[C@H](NC(=O)[C@@H](N)Cc4ccc(O)cc4)C(=O)N[C@@H](CCC(N)=O)C(=O)N[C@@H](CCCCN)C(=O)N[C@@H](Cc4c[nH]c5ccccc45)C(=O)N[C@@H](CCSC)C(=O)N[C@@H](Cc4c[nH]c5ccccc45)C(=O)N[C@@H]([C@@H](C)O)C(=O)N3)NC2=O)C(=O)N[C@@H](CCCCN)C(=O)N[C@@H](Cc2cn(CCCOCCOCCOCCOCCOCCOCCOCCOCCOCCOCCN)nn2)C(=O)N[C@@H](Cc2c[nH]c3ccccc23)C(=O)N1)[C@@H](C)CC)C(N)=O` [compound 183], at hNav1.4, the Nav1.4/Nav1.7 is listed as 1.

For the molecule `CC[C@H](C)[C@H](NC(=O)[C@H](Cc1cn(CCCOCCOCCOCCOCCOCCOCCOCCOCCOCCOCCN)nn1)NC(=O)[C@H](CCCCN)NC(=O)[C@H](CCCNC(=N)N)NC(=O)[C@@H]1CSSC[C@@H]2NC(=O)[C@H](C)NC(=O)[C@H](CCCNC(=N)N)NC(=O)[C@H](CCCCN)NC(=O)[C@H](CO)NC(=O)[C@H](CC(=O)O)NC(=O)[C@@H]3CSSC[C@H](NC(=O)[C@H](CCC(=O)O)NC(=O)[C@H](CC(C)C)NC(=O)CNC(=O)[C@H](CCC(=O)O)NC(=O)[C@H](CSSC[C@H](NC(=O)[C@@H](N)Cc4ccc(O)cc4)C(=O)N[C@@H](CCC(N)=O)C(=O)N[C@@H](CCCCN)C(=O)N[C@@H](Cc4c[nH]c5ccccc45)C(=O)N[C@@H](CCSC)C(=O)N[C@@H](Cc4c[nH]c5ccccc45)C(=O)N[C@@H]([C@@H](C)O)C(=O)N3)NC2=O)C(=O)N[C@@H](CCCCN)C(=O)N[C@@H](CC(C)C)C(=O)N[C@@H](Cc2c[nH]c3ccccc23)C(=O)N1)C(N)=O` [compound 187], on hNav1.4, the Nav1.4/Nav1.7 worked out at 3.
